One data set has as its target T1, CYP1A2 (Homo sapiens, UniProt P05177).
T1 construct: Frozen liver (both rat and human) was thawed; from tissue; host or cells: human liver microsomal fraction
T1 sequence (P05177 1-516): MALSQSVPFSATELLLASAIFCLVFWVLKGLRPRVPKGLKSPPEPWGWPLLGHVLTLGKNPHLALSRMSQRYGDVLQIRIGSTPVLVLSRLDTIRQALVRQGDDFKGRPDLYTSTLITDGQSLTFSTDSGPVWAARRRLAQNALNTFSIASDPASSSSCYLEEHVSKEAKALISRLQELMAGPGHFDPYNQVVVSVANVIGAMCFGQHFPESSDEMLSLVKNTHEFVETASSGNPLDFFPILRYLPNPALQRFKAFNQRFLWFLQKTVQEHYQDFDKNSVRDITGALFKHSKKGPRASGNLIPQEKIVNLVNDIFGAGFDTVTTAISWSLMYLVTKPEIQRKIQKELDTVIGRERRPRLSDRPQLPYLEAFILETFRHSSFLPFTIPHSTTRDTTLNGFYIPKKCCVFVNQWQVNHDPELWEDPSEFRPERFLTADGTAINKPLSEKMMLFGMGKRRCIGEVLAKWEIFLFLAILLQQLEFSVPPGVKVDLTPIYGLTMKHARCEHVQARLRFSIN
As to the kind of experiment: CYP1A2 (EROD activity, 7-ethoxyresorufin O-deethylation) in human liver microsomes. Format: in vitro ADME. The conditions noted are these: liver microsomes, probe 7-ethoxyresorufin; human, 5 µM inhibitor. As to the method:
(§1) Enzyme activities were assayed in human and rat liver cytosolic and microsomal fractions. The enzyme assays (each performed in 4–8 replicates) were repeated three times (HPLC measurement of CYP activities was repeated only twice, Table 3). Inhibition studies were carried out by incubation of specific substrates in the presence of sesquiterpenes (in the range 0–100 µM).
(§2) Enzyme activities of individual CYP forms were measured according to established protocols. The following microsomal CYP activities were tested: CYP2A6, coumarin 7-hydroxylation; CYP2B6, 7-ethoxy-4-(trifluoromethyl)coumarin 7-deethylation, CYP2C9, diclofenac 4′-hydroxylation, CYP2C19 assay, S-mephenytoin 4′-hydroxylation, CYP2D6 on bufuralol 1′-hydroxylation, CYP2E1, chlorzoxazone 6-hydroxylation and CYP3A4, testosterone 6β-hydroxylation, and midazolam 1′-hydroxylation. Activities were measured using the Prominence HPLC system (Shimadzu, Kyoto, Japan), equipped with a LiChroCART 250-4 LiChrospher 100 RP-18 column or Chromolith®HighResolution RP-18 end-capped column (Merck, Darmstadt, Germany) and UV or fluorescence detection, according to the cited literature. Further incubation details are described either in the corresponding references, as well as in the papers from this laboratory e.g., [42, 43, 44]. CYP1A2, 7-ethoxyresorufin O-deethylation, and CYP3A4/2B6 (human), CYP2B1 (rat), benzyloxyresorufin O-debenzylation were measured using the microplate reader Tecan Infinite M200 (Tecan Group; Mannedorf, Switzerland).
Sesquiterpenes CNER, TNER and FAR, non-volatile liquids, were pipetted, and proper concentration was calculated according to density. All compounds were dissolved in DMSO. […] All experiments were performed in three replicates, if not stated otherwise.
(§3) CNER, TNER and FAR at a fixed concentration of 100 µM were screened for inhibition of cytosolic AKR1A1, AKR1C, CBR1, NQO1, SULT, and GST, and microsomal CYPs and UGT. The degree of inhibition caused by sesquiterpenes was compared with non-inhibited control reactions, which contained solvent without sesquiterpenes.
The concentration of sesquiterpenes required for 50% inhibition of enzyme activity, the IC50 value, was determined. […] The IC50 values for each sesquiterpene were determined by plotting sigmoidal dose response curves of specific enzyme activity vs. logarithm of sesquiterpene concentration using GraphPad Prism version 6.07 for Windows (GraphPad Software Inc., La Jolla, CA, USA).
(§4) The kinetic inactivation study of the CYP1A2 (EROD activity) and CYP2B/3A (BROD activity), both in rat and human, with TNER, was performed to find out the mechanism of enzyme inhibition by this sesquiterpene. Mechanism of EROD and BROD inhibition was tested at the final ethoxyresorufin or benzyloxyresorufin concentrations 0.5–5.0 µM. The concentration of TNER was 5.0 µM.
(§5) Experimental data were fitted to the Michaelis-Menten equation, basic kinetic parameters were determined using the program GraphPad Prism version 6.07 for Windows. The type of inhibition was estimated using a Lineweaver-Burk (double-reciprocal) plot.
A general note: Liver microsomes are vesicles of endoplasmic reticulum, rich in cytochrome P450 enzymes.

Another data set relates to HeLa. On the set-up: method as in earlier work. The settings on record: HeLa cell line; cited from earlier work.
In a further data set the test system is Jurkat. On the set-up: method as in earlier work. The settings on record: Jurkat cell line; cited from earlier work.
For the next data set, the system named is CYP2B/3A. Description: CYP2B/3A (BROD activity, benzyloxyresorufin O-debenzylation) in human liver microsomes. The settings on record: probe benzyloxyresorufin. The class given is in vitro ADME. On the procedure: as §1, §2
Sesquiterpenes CNER, TNER and FAR, non-volatile liquids, were pipetted, and proper concentration was calculated according to density. All compounds were dissolved in DMSO. The final solvent concentration in the inhibition assays was 1%, which had no effect on the enzyme activity (data not shown). Non-enzymatic interference of sesquiterpenes with some compounds in the reaction mixtures (e.g., fluorescence enhancing or quenching) was considered and excluded. All experiments were performed in three replicates, if not stated otherwise.
as §3
The concentration of sesquiterpenes required for 50% inhibition of enzyme activity, the IC50 value, was determined. Their final concentrations in the reaction mixture were proposed to cover the entire inhibitory range of these compounds (1–100 µM). The IC50 values for each sesquiterpene were determined by plotting sigmoidal dose response curves of specific enzyme activity vs. logarithm of sesquiterpene concentration using GraphPad Prism version 6.07 for Windows (GraphPad Software Inc., La Jolla, CA, USA).
as §4, §5

A further data set has as its system certain CYPs. On the set-up: method as in PMID 21287405. The conditions noted are these: read-out: IC50, inhibition of certain CYPs; cited from earlier work.
The subject of the next data set is CYP3A4. Further details: method as in PMID 25858508. The conditions noted are these: human liver microsomes; cited from earlier work.

As to `O=c1cc(-c2ccccc2)oc2c1ccc1ccccc12` [ANF, α-naphthoflavone, reference compound], on CYP1A2, the inhibition at 5 µM is 92%.

With `C=CC(C)(O)CC/C=C(\C)CCC=C(C)C` (stereo not shown) [NER, Nerolidol], the “concentration with strong anti-tumor effects” value with HeLa and with Jurkat was “less than 5 µM” each time.

Turning to `CC(=O)N1CCN(c2ccc(OCC3COC(Cn4ccnc4)(c4ccc(Cl)cc4Cl)O3)cc2)CC1` (stereo not shown) [KET, ketoconazole, reference compound], the inhibition at 5 µM in the data set on CYP2B/3A (liver microsomes, human, 5 µM inhibitor) stood at 66%. For the same compound, in the data set on CYP2B/3A (human liver microsomes), the IC50 came to 2.68 µM.

On to `CC1=CCC[C@]2(C)O[C@H]2CC(=C(C)C)C(=O)C1` [(4S,5S)-(+)-germacrone-4,5-epoxide], for which the IC50 in the data set with certain CYPs is 1 µM.

For `C=C1C(=O)O[C@@H]2C[C@@]3(C)CCC[C@H](C)C3=C[C@H]12` [alantolactone], in the data set with CYP3A4, the IC50 was 3.6 µM.

As usually defined, the inhibition is the share of the control response that was lost under treatment. The term IC50 denotes the midpoint of a concentration-inhibition curve.

The values above are taken from publication PMC6154719 (Molecules : A Journal of Synthetic Chemistry and Natural …, 2017).
